Results reported in patent US20100021989A1, “COMPOSITIONS AND METHODS OF CONTROLLING AND ADMINISTERING REDOX SPECIFIC FORMS OF DRUGS, FOODS AND DIETARY SUPPLEMENTS” (priority 2008, published 2010).
Read-outs that look alike come from different tables or passages of the source.

What was measured:
[1] = Toxicity, Neutral Red Uptake; settings: host cells
Bcl-xL = Bcl-xL (Homo sapiens, UniProt Q07817); settings: Kitada et al., 2003; cited from earlier work
HSV-2 (herpes simplex 2) = assay: Antiviral drug screen of EGCG, HSV-2; type: cell-based
[2] = type: physicochemical
Excerpt: UV-Visible Absorption Spectra vs. pH: EGCG solutions undergo an immediate spectral absorption shift as the pH increases from acidic to alkaline, with a change noted at pH 7 when a peak at 320 nm appears and the dominant phenol peak at 272 nm begins to decrease (FIG. 3A). The 320 nm peak likely represents the absorbance of the quinone form of EGCG. […] However, if the alkaline solution is re-acidified within minutes, the reaction is reversible. […] EPR vs. pH study of EGCG: The EPR and UV-visible spectra of EGCG, stabilized with 0.2 M MgCl2, were measured as a function of pH (i.e., 6.03, 6.54, 7.03, 7.57, 8.09, 8.56, 9.10, 9.56). A corresponding increase in a peak at ˜314 nm and a g=2 EPR spectrum occurred with increasing pH. […] This is in agreement with the known stabilizing effect on semiquinone free radicals by divalent cations like Mg^+2. […] The multiple peaks and valleys in FIGS. 5a and 5b are the fine structure detail of a high concentration radical solution. EPR detects unpaired spinning electrons due to the absorption of microwaves in an applied magnetic field. The peak splitting is due to interaction of the lone electron's spin magnetic field with environmental magnetic fields. […]

[3] = tested on: multidrug-resistant strain (33591) of Staphylococcus aureus; assay: Antibacterial assay, pre-incubation then colony-forming units counted; type: cell-based; settings: for Killing of bacteria (cfu): 0.08% EGCG
Protocol: Antibacterial activity: EGCG was tested as an antibacterial agent against a multidrug-resistant strain (33591) of Staphylococcus aureus. After pre-incubating the cells with various concentrations of EGCG at pH 6, 7.5, and 8.5, cells were plated and colony-forming units (cfu) were counted as a measure of efficacy (FIG. 12).

[4] = tested on: VZV (varicella zoster virus); assay: Antiviral drug screen of EGCG, VZV; type: cell-based
[5] = tested on: HCMV (human cytomegalovirus); assay: Antiviral drug screen of EGCG, HCMV; type: cell-based
[6] = cited from earlier work
HSV-1 (herpes simplex 1) = assay: Antiviral drug screen of EGCG, HSV-1; type: cell-based
[7] = type: physicochemical; remark: listed apart in the source
Excerpt: An electrochemical cell was fabricated using a fine porosity glass frit in one-inch-diameter glass tubing. The electrochemical cell houses the counter electrode and keeps the Ag/AgCl reference electrode and platinum working electrode separate from the counter electrode. This addition to the system allowed the preparation of bulk solution. The working electrode and reference electrode compartment was continuously stirred using a small stir bar and a magnetic stirrer to minimize gradient effects at the working electrode. The EGCG solutions were oxidized using a positive potential to a visual end point. UV-visible spectral data were collected during these experiments, including the absorbance at 270 nm and 320 nm, corresponding to the phenol and quinone forms of EGCG, respectively. In addition, the open cell potential was recorded as experiments progressed. The active redox potentials and experimental endpoints were determined based on current and visual color changes to oligomers. Due to solution evaporation over time, the ratio of absorbance at 320 nm divided by the absorbance at 270 nm was determined in order to account for overall absorption increases. […] In addition, the visual change in solution color from clear to yellow and pink was also monitored as an indicator of degree of oxidation. Stirred EGCG solutions in 0.1 M phosphate buffer with 0.1 M KCl at pH 6.0 were monitored. The open circuit potential was initially 220 mV. […] A duplicate solution was left uncovered on the table next to the electrochemical cell as the control. After seven hours, no change in either solution at 270 and 320 nm was found. At this point the experimental potential was increased to 1000 mV for a further 16 hours (Table 3A). […] The pH of the solutions remained 6.0 throughout the experiment. All data support the forced oxidation of EGCG at pH 6.0. Solutions were allowed to sit for two more days to observe the stability of the electrochemically-induced changes (Table 3C). Solutions were pH-modified following electrochemical oxidation to observe stability. […] These samples were open to air, and no other precautions were taken to prevent oxidation by atmospheric oxygen.

HSV-1 = HSV-1 inactivation: virus mixed with compound, infectivity titrated on Vero cells (reduction of virus titer); type: cell-based, herpes simplex virus 1; settings: varying pH
Protocol: (§1) Experimental—HSV-1 and 2: Herpes simplex viruses were titrated by inoculation of 10-fold dilutions (HSV-1 was inoculated into Vero cell cultures, and HSV-2 was inoculated into CV1 cultures) in 96-well microtiter tissue culture plates. A virus dilution (0.1 ml) in RPMI 1640 with 1% fetal bovine serum (MM) was inoculated into each well with three wells per dilution. The plates were kept for 2 to 5 days, depending on the virus, and examined daily for cytopathic effect. Virus titers were calculated by the method of Reed and Muench (1938).
(§2) About 10^5 50% tissue culture infective doses (TCID50s) of virus were mixed with varying concentrations (12.5, 25, 50, 75 and 100 μM) of reduced and oxidized EGCG in MM and incubated at 37° C. for 30 min. The following samples were tested: The reduced form of EGCG (#1); the partially oxidized form of EGCG (#2); the quinone or fully oxidized form of EGCG with the addition of a copper catalyst (#3); and quinone or fully oxidized form of EGCG with the addition of a zinc catalyst (#4). In Samples #3 and #4, the addition of the copper and zinc catalysts, respectively, raised the pH to 9.0-9.5. These compounds were totally oxidized, thereby taking a quinone form. […]
(§3) Virus mixed with MM alone was used as a control. […] The 10^−1 to 10^−5 dilutions were inoculated into monolayers of Vero or CV1 cells, and the virus titers were determined as described above. […]

[8] = pH 7.4; cited from earlier work
HSV-2 = HSV-2 inactivation: virus mixed with compound, infectivity titrated on CV1 cells (reduction of virus titer); type: cell-based, herpes simplex virus 2; settings: varying pH
Protocol: as §1, §2, §3

Vero cells = assay: Toxicity to Vero cells, Cell Titer 96 Aqueous Cell Proliferation Assay
[9] = cyclic voltammetry (Kilmartin and Hsu, 2003)
[10] = Control (no potential), pH 6.0, 43 hours
[11] = Control (no potential), pH 6.0, 55 hours
[12] = Control (no potential), pH 6.0, 68 hours
[13] = Control (no potential, uncovered), pH 6.0, 23 hours
[14] = Experiment, pH 6.0, 800 mV 7 h then 1000 mV 16 h, 23 hours
[15] = Experiment, pH 6.0, 1500 mV from 23 h, 43 hours
[16] = Experiment, pH 6.0, 1500 mV from 23 h, 55 hours
[17] = Experiment, pH 6.0, 1500 mV from 23 h, 68 hours
[18] = Experiment, pH 6.0, left to sit after electrochemical oxidation, 73 hours
[19] = Experiment, pH 6.0, left to sit after electrochemical oxidation, 79 hours
[20] = Experiment, pH 6.0, left to sit after electrochemical oxidation, 120 hours

Sequence of Bcl-xL (Q07817 whole entry): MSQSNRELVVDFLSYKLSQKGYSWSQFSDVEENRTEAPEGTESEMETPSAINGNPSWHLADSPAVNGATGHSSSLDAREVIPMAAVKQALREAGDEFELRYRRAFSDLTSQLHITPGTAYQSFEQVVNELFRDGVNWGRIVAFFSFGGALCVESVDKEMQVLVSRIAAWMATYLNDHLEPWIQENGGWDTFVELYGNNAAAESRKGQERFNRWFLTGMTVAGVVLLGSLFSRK

## Nc1nc2c(ncn2COCCO)c(=O)[nH]1 [ACV]
[1]
  CC50: > 100 µg/mL

## O=C(O[C@@H]1Cc2c(O)cc(O)cc2O[C@H]1c1ccc(O)c(O)c1)c1cc(O)c(O)c(O)c1 [CG, catechin-3 gallate]
Bcl-xL
  Ki: nanomolar range

## O=C(O[C@@H]1Cc2c(O)cc(O)cc2O[C@@H]1c1cc(O)c(O)c(O)c1)c1cc(O)c(O)c(O)c1 [EGCG, (−)-Epigallocatechingallate]
HSV-2 (herpes simplex 2); HSV-2
  EC-50: 7.6 µg/mL
  EC-90: 98.6 µg/mL
HSV-2 (herpes simplex 2); cytotoxicity in HSV-2 screen
  CC-50: 857 µg/mL
[2]
  Stability of 320 nm oxidation peak: disappears within hours
[2]; after basification, 0.2 M MgCl2, no electrochemical modulation
  Decay time of semiquinone EPR signal: 30 min
[3]; pH 7.5
  Killing of bacteria (cfu): effective at killing nearly all the bacteria
[3]; pH 8.5
  Killing of bacteria (cfu): effective at killing nearly all the bacteria
[3]; 0.4-0.8% EGCG, pH 6, 7.5 and 8.5
  Bactericidal effect (cfu): strongly bactericidal
[3]; concentrations higher than 0.4-0.8% EGCG
  Effectiveness (cfu): less effective
Host cells
  CC50, TOXICITY Neutral Red Uptake: CC50 > 200
[4]; VZV
  EC-50: 4.1 µg/mL
  EC-90: >40 µg/mL
[4]; cytotoxicity in VZV screen
  CC-50: >40 µg/mL
[5]; HCMV
  EC-50: 6.9 µg/mL
  EC-90: 40 µg/mL
[5]; cytotoxicity in HCMV screen
  CC-50: >40 µg/mL
[6]; [9]
  Oxidation peak potential, first range: 105 mV
  Oxidation peak potential, second range: 213 mV
[6]; pH 7, versus a normal hydrogen electrode
  Reduction potential: 430 mV
HSV-1 (herpes simplex 1); HSV-1
  EC-50: 24.1 µg/mL
  EC-90: 121 µg/mL
HSV-1 (herpes simplex 1); cytotoxicity in HSV-1 screen
  CC-50: 857 µg/mL
[7]; 0.1 M phosphate buffer with 0.1 M KCl, pH 6.0
  Open circuit potential, initial: 220 mV
[7]; [10]
  320 nm/270 nm: 0.174
  Absorbance 270 nm: 0.448
  Absorbance 320 nm: 0.078
[7]; [11]
  320 nm/270 nm: 0.178
  Absorbance 270 nm: 0.471
  Absorbance 320 nm: 0.084
[7]; [12]
  320 nm/270 nm: 0.189
  Absorbance 270 nm: 0.438
  Absorbance 320 nm: 0.083
[7]; [13]
  320 nm/270 nm: 0.170
  Absorbance 270 nm: 0.424
  Absorbance 320 nm: 0.072
[7]; [14]
  320 nm/270 nm: 0.256
  Absorbance 270 nm: 0.418
  Absorbance 320 nm: 0.107
[7]; [15]
  320 nm/270 nm: 0.396
  Absorbance 270 nm: 0.432
  Absorbance 320 nm: 0.171
[7]; [16]
  320 nm/270 nm: 0.467
  Absorbance 270 nm: 0.422
  Absorbance 320 nm: 0.197
[7]; [17]
  320 nm/270 nm: 0.522
  Absorbance 270 nm: 0.429
  Absorbance 320 nm: 0.224
[7]; [18]
  320 nm/270 nm: 0.533
  Absorbance 270 nm: 0.430
  Absorbance 320 nm: 0.229
[7]; [19]
  320 nm/270 nm: 0.538
  Absorbance 270 nm: 0.426
  Absorbance 320 nm: 0.229
[7]; [20]
  320 nm/270 nm: 0.546
  Absorbance 270 nm: 0.436
  Absorbance 320 nm: 0.238
[7]; pH 6
  Stability of electrochemically oxidized solution (320 nm absorbance): stable for over two days
[7]; pH 6.0, no potential, uncovered, 23 hours
  Oxidation of control sample: did not oxidize
[7]; pH 6.26
  Stability of pH-modified solution after electrochemical oxidation (FIG. 14): relatively stable after 7 days
HSV-1
  Effect of pH on activity against HSV-1 (FIG. 9): greater antiviral activity at the more alkaline pH's
[8]
  Time to complete degradation: 6 h
Bcl-xL
  Ki: nanomolar range
HSV-2
  Effect of pH on activity against HSV-2 (FIG. 9): greater antiviral activity at the more alkaline pH's

## O=C(O[C@@H]1Cc2c(O)cc(O)cc2O[C@H]1c1cc(O)c(O)c(O)c1)c1cc(O)c(O)c(O)c1 [GCG, gallocatechin-3 gallate]
Bcl-xL
  Ki: nanomolar range

## O=C(O[C@@H]1Cc2c(O)cc(O)cc2O[C@@H]1c1cc(O)c(O)c(O)c1)c1cc(O)c(O)c(O)c1 [Reduced EGCG]
Vero cells; 50 μM, 24 hours after addition
  Cell Titer 96 assay reading, mean ± SD: 0.753 ± 0.027
Vero cells; 50 μM, 48 hours after addition
  Cell Titer 96 assay reading, mean ± SD: 0.750 ± 0.033
Vero cells; 75 μM, 24 hours after addition
  Cell Titer 96 assay reading, mean ± SD: 0.685 ± 0.052
Vero cells; 75 μM, 48 hours after addition
  Cell Titer 96 assay reading, mean ± SD: 0.706 ± 0.026
Vero cells; 100 μM, 24 hours after addition
  Cell Titer 96 assay reading, mean ± SD: 0.700 ± 0.043
Vero cells; 100 μM, 48 hours after addition
  Cell Titer 96 assay reading, mean ± SD: 0.705 ± 0.019

## epicatechin-3 gallate [ECG]
Bcl-xL
  Ki: nanomolar range
